We go through four compounds from article PMC6522524 (Nature Communications, 2019).

The subject of assay [1] is total HBV core protein in Huh-7 cells. Format: cell-based, Hepatitis B virus. The settings on record: treatment time increased. The procedure: the indicated times. The cells were lysed and assembled HBV core particles were isolated by sucrose step-gradient ultracentrifugation, resolved on 1 % agarose gels, and subjected to immunoblot analysis with anti-HBV core antibody. Total intracellular HBV core protein was also determined by immunoblot analysis in the cell lysates. Core mRNA levels were measured by quantitative RT-PCR. The data

The target of assay [2] is T1, Cp149 (truncated HBV core protein) (Hepatitis B virus genotype D subtype ayw, UniProt P03146).
T1 construct: Cp149 (amino acids 1–149) is a truncated form of the HBV core protein; made in house; host or cells: Escherichia coli
T1 sequence (P03146 1-149): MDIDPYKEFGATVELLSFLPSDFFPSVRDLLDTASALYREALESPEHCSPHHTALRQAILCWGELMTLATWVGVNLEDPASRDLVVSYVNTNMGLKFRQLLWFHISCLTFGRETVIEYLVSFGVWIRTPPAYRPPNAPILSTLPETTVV
The assay is described as follows: biochemical. The settings on record: for Relative intensity, anti core-native gel, individual samples: Sample1-2; for HBV capsid assembly inhibitory activity in vitro (Supplementary Fig. 8): Cp149.

The target of assay [3] is HBV core protein (pCDNA3-Core, Y118 wild-type) in Huh-7 cells (Hepatitis B virus genotype C, UniProt P0C6H6). Put plainly: cell-based. It is filed as cell-based. The settings on record: for activity at 0.1 µM: Huh-7, Y118, 0.1 μM; for activity at 0.5 µM: Huh-7, Y118, 0.5 μM; for activity at 1 µM: Huh-7, Y118, 1 μM; for activity at 5 µM: Huh-7, Y118, 5 μM; for activity at 10 µM: Huh-7, Y118, 10 μM; for HBV capsid assembly inhibitory activity in vivo (Fig. 3d): Huh-7, pCDNA3-Core.
HBV core protein (pCDNA3-Core, Y118 wild-type) in Huh-7 cells, sequence (P0C6H6 whole entry): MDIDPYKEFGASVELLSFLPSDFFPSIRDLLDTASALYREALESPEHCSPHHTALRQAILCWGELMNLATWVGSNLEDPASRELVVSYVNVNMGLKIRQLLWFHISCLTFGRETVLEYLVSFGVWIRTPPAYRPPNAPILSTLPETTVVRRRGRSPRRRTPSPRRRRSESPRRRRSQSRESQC

Where [4] appears, read: Sample1-3, read-out: Relative intensity (Folds), intracellular capsid, individual samples.
Setting [5] is: read-out: Relative intensity (Folds), intracellular capsid, AVERAGE.
Setting [6] is: Y118, 0.1 μM, Sample1-3, 0.1 µM.
Setting [7] is: Y118, 0.5 μM, Sample1-3, 0.5 µM.

“And” between values parts separate entries of the source, which are not always exact repeats. Equal entries are not always repeated. Where two headings read alike, the source gives them in different places.

Bay41–4109: the total core protein entry in assay [1] is “decreased”.
For the compound `CC1(CC(=O)O)CC(C2CCCCC2)=NO1` (racemic) [(RS)-2-(3-cyclohexyl-5-methyl-4,5-dihydroisoxazol-5-yl)acetic Acid], the “Relative intensity, anti core-native gel, AVERAGE” value (from here on “Relative intensity … AVERAGE”) in assay [2] (Drug Concentration 0.1 μM) amounted to 0.9301; in assay [2] (Drug Concentration 0.2 μM) it was 1.003; in assay [2] (Drug Concentration 0.5 μM), 0.9877; in assay [2] (Drug Concentration 1 μM), 0.9712; in assay [2] (Drug Concentration 2 μM), 0.9867; in assay [2] (Drug Concentration 5 μM) it was 0.9809. In addition, in assay [2] (Drug Concentration 10 μM), the “Relative intensity … AVERAGE” value is on record as 1.051. For the same compound, the “Relative intensity, anti core-native gel, individual samples” value was 1.019 and 0.8411 in assay [2] (Drug Concentration 0.1 μM); 1.033 and 0.9731 in assay [2] (Drug Concentration 0.2 μM); 0.9703 and 1.005 in assay [2] (Drug Concentration 0.5 μM); 1.074 and 0.8679 in assay [2] (Drug Concentration 1 μM); 1.072 and 0.9014 in assay [2] (Drug Concentration 2 μM); 1.098 and 0.8634 in assay [2] (Drug Concentration 5 μM). In assay [2] (Drug Concentration 10 μM), the “Relative intensity, anti core-native gel, individual samples” value was 1.175 and 0.9277.
As to `Cc1cc(C2CCCCC2)oc(=O)c1` [Compound 3, 6-Cyclohexyl-4-methyl-2–pyrone], the “HBV capsid assembly inhibitory activity in vitro (Supplementary Fig. 8)” value in assay [2] was “blocked its HBV capsid assembly inhibitory activity”. Besides, the “Relative intensity … AVERAGE” value in assay [2] (Drug Concentration 0.1 μM) is given as 0.9537; in assay [2] (Drug Concentration 0.2 μM), 0.9345; in assay [2] (Drug Concentration 0.5 μM), 0.8949; in assay [2] (Drug Concentration 1 μM), 0.9182; in assay [2] (Drug Concentration 2 μM), 0.8055; in assay [2] (Drug Concentration 5 μM), 0.9044. Also, in assay [2] (Drug Concentration 10 μM), the “Relative intensity … AVERAGE” value is on record as 1.014. Moreover, the “Relative intensity, anti core-native gel, individual samples” value in assay [2] (Drug Concentration 0.1 μM, listed as 6-Cycloxexyl-4-methyl-2-pyrone) was 0.8748 and 1.033; in assay [2] (Drug Concentration 0.2 μM, listed as 6-Cycloxexyl-4-methyl-2-pyrone), 0.9048 and 0.9643; in assay [2] (Drug Concentration 0.5 μM, listed as 6-Cycloxexyl-4-methyl-2-pyrone), 0.8127 and 0.9771; in assay [2] (Drug Concentration 1 μM, listed as 6-Cycloxexyl-4-methyl-2-pyrone) it was 0.8468 and 0.9896; in assay [2] (Drug Concentration 2 μM, listed as 6-Cycloxexyl-4-methyl-2-pyrone), 0.798 and 0.8131; in assay [2] (Drug Concentration 5 μM, listed as 6-Cycloxexyl-4-methyl-2-pyrone), 0.8531 and 0.9558. For the same compound, in assay [2] (Drug Concentration 10 μM, listed as 6-Cycloxexyl-4-methyl-2-pyrone), the “Relative intensity, anti core-native gel, individual samples” value was 0.9919 and 1.036. Further, the values for the activity at 0.1 µM in assay [3] (setting [4]) and in assay [3] (setting [5]) were 109% and 119%, respectively. The activity at 0.5 µM in assay [3] (setting [5]) was 113%. The activity at 1 µM in assay [3] (setting [4]) came to 103%; in assay [3] (setting [5]) it was 106%. For the same compound, the activity at 5 µM in assay [3] (setting [4]) came out at 110%; in assay [3] (setting [5]) it was 115%. In addition, the activity at 10 µM in assay [3] (setting [5]) was 115%. For the same compound, the “HBV capsid assembly inhibitory activity in vivo (Fig. 3d)” value in assay [3] is reported as “blocked its HBV capsid assembly inhibitory activity”. In addition, the “Relative intensity (Folds), intracellular capsid, individual samples” value was 1.2405 Folds and 1.2516 Folds in assay [3] (setting [6]); 0.9808 Folds and 1.196 Folds and 1.214 Folds in assay [3] (setting [7]); 1.107 Folds and 1.042 Folds in assay [3] (Y118, 1 μM, Sample1-3, 1 µM); 1.192 Folds and 1.143 Folds in assay [3] (Y118, 5 μM, Sample1-3, 5 µM); 0.9807 Folds and 1.199 Folds and 1.28 Folds in assay [3] (Y118, 10 μM, Sample1-3, 10 µM).
Regarding `Cc1cc(C2CCCCC2)[nH]c(=O)c1` [Compound 2, 6-Cyclohexyl-4-methyl pyridin-2(1H)-one], in assay [2], the “HBV capsid assembly inhibitory activity in vitro (Supplementary Fig. 8)” value is “blocked its HBV capsid assembly inhibitory activity”. Moreover, the “Relative intensity … AVERAGE” value was 0.9832 in assay [2] (Drug Concentration 0.1 μM); 1.01 in assay [2] (Drug Concentration 0.2 μM); 0.9545 in assay [2] (Drug Concentration 0.5 μM); 0.9058 in assay [2] (Drug Concentration 1 μM); 0.9815 in assay [2] (Drug Concentration 2 μM); 0.9702 in assay [2] (Drug Concentration 5 μM). Also, in assay [2] (Drug Concentration 10 μM), the “Relative intensity … AVERAGE” value worked out at 0.8707. Also, the “Relative intensity, anti core-native gel, individual samples” value in assay [2] (Drug Concentration 0.1 μM) was 0.9055 and 1.061; in assay [2] (Drug Concentration 0.2 μM), 0.8978 and 1.1231; in assay [2] (Drug Concentration 0.5 μM), 0.9595 and 0.9494; in assay [2] (Drug Concentration 1 μM), 0.865 and 0.9466; in assay [2] (Drug Concentration 2 μM) it was 0.9391 and 1.024; in assay [2] (Drug Concentration 5 μM), 0.8581 and 1.082. In assay [2] (Drug Concentration 10 μM), the “Relative intensity, anti core-native gel, individual samples” value is 0.8904 and 0.851. In addition, the activity at 0.1 µM is 94% in assay [3] (setting [4]) and 96.2% in assay [3] (setting [5]). The results for the activity at 0.5 µM in assay [3] (setting [4]) and in assay [3] (setting [5]) were 96.4% and 98.6%, respectively. The figures for the activity at 1 µM in assay [3] (setting [4]) and in assay [3] (setting [5]) were 90.2% and 101%, respectively. For the same compound, the activity at 5 µM turned out to be 85.6% in assay [3] (setting [4]) and 95.8% in assay [3] (setting [5]). In addition, the activity at 10 µM in assay [3] (setting [4]) worked out at 87.2%; in assay [3] (setting [5]) it was 99.5%. Further, the “HBV capsid assembly inhibitory activity in vivo (Fig. 3d)” value in assay [3] is recorded as “blocked its HBV capsid assembly inhibitory activity”. Moreover, the “Relative intensity (Folds), intracellular capsid, individual samples” value in assay [3] (setting [6]) was 1.008 Folds and 0.9391 Folds; in assay [3] (setting [7]) it was 1.032 Folds and 0.9631 Folds; in assay [3] (Y118, 1 μM, Sample1-3, 1 µM), 1.06 Folds and 1.081 Folds; in assay [3] (Y118, 5 μM, Sample1-3, 5 µM), 1.004 Folds and 1.015 Folds; in assay [3] (Y118, 10 μM, Sample1-3, 10 µM), 1.04 Folds and 1.071 Folds.
